Assay type in all cases: ADME, subcellular
The target in series [1] is T1, Aldehyde oxidase (Homo sapiens, UniProt Q06278).
T1 sequence (Q06278 whole entry): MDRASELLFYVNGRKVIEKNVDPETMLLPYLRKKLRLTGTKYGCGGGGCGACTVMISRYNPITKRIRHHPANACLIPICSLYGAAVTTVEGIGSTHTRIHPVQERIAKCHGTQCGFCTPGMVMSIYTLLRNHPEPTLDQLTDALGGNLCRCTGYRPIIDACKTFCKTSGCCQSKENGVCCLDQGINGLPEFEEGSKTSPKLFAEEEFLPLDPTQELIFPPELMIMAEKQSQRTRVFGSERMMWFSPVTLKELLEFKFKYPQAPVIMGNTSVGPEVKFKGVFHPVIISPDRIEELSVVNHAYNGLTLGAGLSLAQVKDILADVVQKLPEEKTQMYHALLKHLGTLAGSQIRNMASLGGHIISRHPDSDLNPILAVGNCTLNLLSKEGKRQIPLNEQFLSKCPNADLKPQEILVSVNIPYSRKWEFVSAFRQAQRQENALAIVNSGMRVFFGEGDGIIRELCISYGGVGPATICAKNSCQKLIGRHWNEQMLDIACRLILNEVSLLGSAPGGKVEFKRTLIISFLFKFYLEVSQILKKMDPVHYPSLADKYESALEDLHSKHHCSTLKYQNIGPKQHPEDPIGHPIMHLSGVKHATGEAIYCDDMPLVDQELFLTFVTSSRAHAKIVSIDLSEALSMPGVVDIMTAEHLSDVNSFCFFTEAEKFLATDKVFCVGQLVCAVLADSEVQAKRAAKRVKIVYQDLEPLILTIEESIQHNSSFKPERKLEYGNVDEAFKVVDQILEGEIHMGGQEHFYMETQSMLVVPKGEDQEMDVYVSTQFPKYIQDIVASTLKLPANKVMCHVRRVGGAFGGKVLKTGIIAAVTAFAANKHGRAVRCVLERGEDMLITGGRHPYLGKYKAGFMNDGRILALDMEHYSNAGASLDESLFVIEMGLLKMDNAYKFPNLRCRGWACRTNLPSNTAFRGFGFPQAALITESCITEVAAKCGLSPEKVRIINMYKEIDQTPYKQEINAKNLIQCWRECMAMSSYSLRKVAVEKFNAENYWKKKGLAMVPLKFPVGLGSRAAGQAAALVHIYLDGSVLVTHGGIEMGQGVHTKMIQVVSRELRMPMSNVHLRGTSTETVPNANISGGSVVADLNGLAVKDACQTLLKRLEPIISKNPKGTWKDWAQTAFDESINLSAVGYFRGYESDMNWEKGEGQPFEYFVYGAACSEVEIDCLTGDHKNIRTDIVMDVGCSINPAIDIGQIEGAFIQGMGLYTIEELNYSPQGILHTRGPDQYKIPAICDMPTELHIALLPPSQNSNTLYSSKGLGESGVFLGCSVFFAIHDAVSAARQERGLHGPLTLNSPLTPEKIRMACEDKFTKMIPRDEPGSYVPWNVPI
The series can be described thus: Drug metabolism in human liver S9 fraction assessed as aldehyde oxidase-mediated 2-oxo-metabolite formation at 10 uM by spectrometry. To be noted: s9, 10 µM.

In series [2] the target is T1, Aldehyde oxidase. The series can be described thus: Half life in human liver S9 fraction assessed as aldehyde oxidase-mediated 2-oxo-metabolite formation at 1 uM by spectrometry. To be noted: s9, 1 µM.
In series [3] the target is T1, Aldehyde oxidase. Nature of the series: Drug level in human liver S9 fraction assessed as aldehyde oxidase-mediated compound formation treated with 10 uM N-carbamimidoyl-5-(methoxymethyl)-1-(quinolin-5-yl)-1H-pyrazole-4-carboxamide by spectrometry.
Series [4] has as its target T1, Aldehyde oxidase. The series can be described thus: Drug level in human liver S9 fraction assessed as aldehyde oxidase-mediated compound formation treated with 10 uM 5-cyclopropyl-N,N-diethyl-1-(quinolin-5-yl)-1H-pyrazole-4-carboxamide by spectrometry.
Series [5] concerns the target T1, Aldehyde oxidase. The series can be described thus: Drug level in human liver S9 fraction assessed as aldehyde oxidase-mediated compound formation treated with 10 uM N-carbamimidoyl-5-propyl-1-(quinolin-5-yl)-1H-pyrazole-4-carboxamide by spectrometry.
The target of series [6] is T1, Aldehyde oxidase. Nature of the series: Drug level in human liver S9 fraction assessed as aldehyde oxidase-mediated compound formation treated with 10 uM N-carbamimidoyl-5-isopropyl-1-(quinolin-5-yl)-1H-pyrazole-4-carboxamide by spectrometry.
Series [7] addresses T1, Aldehyde oxidase. The series can be described thus: Drug level in human liver S9 fraction assessed as aldehyde oxidase-mediated compound formation treated with 10 uM 5-cyclopropyl-1-(quinolin-5-yl)-1H-pyrazole-4-carboxamide by spectrometry.
The target in series [8] is T1, Aldehyde oxidase. Nature of the series: Drug level in human liver S9 fraction assessed as aldehyde oxidase-mediated compound formation treated with 10 uM 5-butyl-N-carbamimidoyl-1-(quinolin-5-yl)-1H-pyrazole-4-carboxamide by spectrometry.
The target in series [9] is T1, Aldehyde oxidase. The series can be described thus: Drug level in human liver S9 fraction assessed as aldehyde oxidase-mediated compound formation treated with 10 uM N-carbamimidoyl-3-cyclopropyl-1-(quinolin-5-yl)-1H-pyrazole-4-carboxamideby spectrometry.
In series [10] the target is T1, Aldehyde oxidase. Nature of the series: Drug level in human liver S9 fraction assessed as aldehyde oxidase-mediated compound formation treated with 10 uM 5-cyclopropyl-1-(quinolin-5-yl)-1H-pyrazole-4-carboxylic acid by spectrometry.
Series [11] addresses T1, Aldehyde oxidase. The series can be described thus: Drug level in human liver S9 fraction assessed as aldehyde oxidase-mediated compound formation treated with 10 uM zoniporide by spectrometry.
Series [12] has as its target T1, Aldehyde oxidase. The series can be described thus: Drug level in human liver S9 fraction assessed as aldehyde oxidase-mediated compound formation treated with 10 uM N-carbamimidoyl-5-methyl-1-(quinolin-5-yl)-1H-pyrazole-4-carboxamide by spectrometry.
Substrate in series [13]: CCN(CC)C(=O)c1cnn(-c2cccc3ncccc23)c1C1CC1
The series can be described thus: (§1) Drug metabolism in human liver S9 fraction assessed as aldehyde oxidase-mediated 2-oxo-metabolite formation by spectrometry.

Substrate in series [14]: N=C(N)NC(=O)c1cnn(-c2ccnc3ccccc23)c1C1CC1
Described as §1.

Substrate in series [15]: N=C(N)NC(=O)c1cn(-c2cccc3ncccc23)nc1C1CC1
The series is described as §1.

Substrate in series [16]: CC(C)c1c(C(=O)NC(=N)N)cnn1-c1cccc2ncccc12
The description is as §1.

Substrate in series [17]: COCc1c(C(=O)NC(=N)N)cnn1-c1cccc2ncccc12
The description is as §1.

Substrate in series [18]: N=C(N)NC(=O)c1cnn(-c2ccc3ncccc3c2)c1C1CC1
The description is as §1.

Bounds are passed on as bounds.

Take `CCCCc1c(C(=O)NC(=N)N)cnn1-c1cccc2ncccc12`: the Drug metabolism entry in series [1] is recorded as “metabolite_detected”. In addition, the t1/2 in series [2] worked out at 48 min. For the molecule `N=C(N)NC(=O)c1cnn(-c2ccc3ncccc3c2)c1C1CC1`, the Drug metabolism entry in series [1] is on record as “metabolite_detected”. In addition, the t1/2 in [2] was below 5 min. Regarding `N=C(N)NC(=O)c1cnn(-c2cccc3ncccc23)c1C1CC1` [ZONIPORIDE], the Drug metabolism result in series [1] was “metabolite_detected”. In addition, the t1/2 in series [2] was determined as 26 min. Regarding `COCc1c(C(=O)NC(=N)N)cnn1-c1cccc2[nH]c(=O)ccc12`, in series [3], the Drug metabolism result is given as “metabolite_detected”. On to `Cc1c(C(=O)N=C(N)N)cnn1-c1cccc2ncccc12`, for which, in series [1], the Drug metabolism entry is “metabolite_detected”. Further, the t1/2 in series [2] is 33 min. Regarding `CCN(CC)C(=O)c1cnn(-c2cccc3[nH]c(=O)ccc23)c1C1CC1`, the Drug metabolism entry in series [4] is “metabolite_detected”. For the molecule `N=C(N)NC(=O)c1cnn(-c2cccc3[nH]cnc23)c1C1CC1`, the Drug metabolism result in series [1] was “metabolite_detected”. Moreover, in series [2], the t1/2 is reported as 120 min. Regarding `CCCc1c(C(=O)NC(=N)N)cnn1-c1cccc2[nH]c(=O)ccc12`, the Drug metabolism entry in series [5] is “metabolite_detected”. For the molecule `COc1ccc2ncccc2c1-n1ncc(C(=O)NC(=N)N)c1C1CC1`, the Drug metabolism result in [1] was “metabolite_detected”. Moreover, the t1/2 in [2] stood at 120 min.

With `Cc1ccc2ncccc2c1-n1ncc(C(=O)NC(=N)N)c1C1CC1`, the Drug metabolism entry in series [1] is recorded as “metabolite_detected”. In series [2], the t1/2 is on record as 120 min. As for `CC(C)c1c(C(=O)NC(=N)N)cnn1-c1cccc2[nH]c(=O)ccc12`, in series [6], the Drug metabolism entry is listed as “metabolite_detected”. Turning to `NC(=O)c1cnn(-c2cccc3[nH]c(=O)ccc23)c1C1CC1`, the Drug metabolism entry in [7] is listed as “metabolite_detected”. Consider `COCc1c(C(=O)NC(=N)N)cnn1-c1cccc2ncccc12`, for which the Drug metabolism entry in series [1] is on record as “metabolite_detected”. Also, in series [2], the t1/2 is reported as 120 min. For `N=C(N)NC(=O)c1cnn(-c2ccnc3ccccc23)c1C1CC1`, in that order: “metabolite_detected” and 14 min. In the case of `CCN(CC)C(=O)c1cnn(-c2cccc3ncccc23)c1C1CC1`, in series [1], the Drug metabolism result was “metabolite_detected”. The t1/2 in [2] is given as 37 min. `N=C(N)NC(=O)c1cn(-c2cccc3ncccc23)nc1C1CC1`: the Drug metabolism entry in [1] was “metabolite_detected”. The t1/2 in series [2] is reported as 3.1 min.

Consider `NC(=O)c1cnn(-c2cccc3ncccc23)c1C1CC1`, for which, in [1], the Drug metabolism entry is “metabolite_detected”. In addition, in series [2], the t1/2 is 110 min.

For `CCCCc1c(C(=O)NC(=N)N)cnn1-c1cccc2[nH]c(=O)ccc12`, in series [8], the Drug metabolism result is listed as “metabolite_detected”.

As to `N=C(N)NC(=O)c1cn(-c2cccc3[nH]c(=O)ccc23)nc1C1CC1`, in series [9], the Drug metabolism result is on record as “metabolite_detected”. As for `O=C(O)c1cnn(-c2cccc3[nH]c(=O)ccc23)c1C1CC1`, the Drug metabolism entry in series [10] is recorded as “metabolite_detected”. As for `CCCc1c(C(=O)NC(=N)N)cnn1-c1cccc2ncccc12`, in series [1], the Drug metabolism result is on record as “metabolite_detected”. Besides, in [2], the t1/2 was 41 min. For `N=C(N)NC(=O)c1cnn(-c2cccc3[nH]c(=O)ccc23)c1C1CC1`, the Drug metabolism result in series [11] was “metabolite_detected”. As for `O=C(O)c1cnn(-c2cccc3ncccc23)c1C1CC1`, the Drug metabolism result in series [1] is listed as “metabolite_detected”. For the same molecule, the t1/2 in [2] worked out at 120 min. `Cc1c(C(=O)NC(=N)N)cnn1-c1cccc2[nH]c(=O)ccc12`: the Drug metabolism entry in [12] was “metabolite_detected”. For `N=C(N)NC(=O)c1cnn(-c2c(O)ccc3ncccc23)c1C1CC1`, in [1], the Drug metabolism entry is listed as “metabolite_detected”. In addition, in [2], the t1/2 is 120 min.

On to `N=C(N)NC(=O)c1cnn(-c2cccc3[nH]ccc23)c1C1CC1`, for which, in series [1], the Drug metabolism result is given as “metabolite_not_detected”. Regarding `N=C(N)NC(=O)c1cnn(-c2cccc3[nH]ncc23)c1C1CC1`, the Drug metabolism entry in series [1] is listed as “metabolite_not_detected”. Consider `CC(C)c1c(C(=O)NC(=N)N)cnn1-c1cccc2ncccc12`, for which the Drug metabolism entry in series [1] was “metabolite_detected”. In addition, the t1/2 in series [2] amounted to 15 min.

B1: Aldehyde oxidase (Homo sapiens) (protein)
chain: MDRASELLFYVNGRKVIEKNVDPETMLLPYLRKKLRLTGTKYGCGGGGCGACTVMISRYNPITKRIRHHPANACLIPICSLYGAAVTTVEGIGSTHTRIHPVQERIAKCHGTQCGFCTPGMVMSIYTLLRNHPEPTLDQLTDALGGNLCRCTGYRPIIDACKTFCKTSGCCQSKENGVCCLDQGINGLPEFEEGSKTSPKLFAEEEFLPLDPTQELIFPPELMIMAEKQSQRTRVFGSERMMWFSPVTLKELLEFKFKYPQAPVIMGNTSVGPEVKFKGVFHPVIISPDRIEELSVVNHAYNGLTLGAGLSLAQVKDILADVVQKLPEEKTQMYHALLKHLGTLAGSQIRNMASLGGHIISRHPDSDLNPILAVGNCTLNLLSKEGKRQIPLNEQFLSKCPNADLKPQEILVSVNIPYSRKWEFVSAFRQAQRQENALAIVNSGMRVFFGEGDGIIRELCISYGGVGPATICAKNSCQKLIGRHWNEQMLDIACRLILNEVSLLGSAPGGKVEFKRTLIISFLFKFYLEVSQILKKMDPVHYPSLADKYESALEDLHSKHHCSTLKYQNIGPKQHPEDPIGHPIMHLSGVKHATGEAIYCDDMPLVDQELFLTFVTSSRAHAKIVSIDLSEALSMPGVVDIMTAEHLSDVNSFCFFTEAEKFLATDKVFCVGQLVCAVLADSEVQAKRAAKRVKIVYQDLEPLILTIEESIQHNSSFKPERKLEYGNVDEAFKVVDQILEGEIHMGGQEHFYMETQSMLVVPKGEDQEMDVYVSTQFPKYIQDIVASTLKLPANKVMCHVRRVGGAFGGKVLKTGIIAAVTAFAANKHGRAVRCVLERGEDMLITGGRHPYLGKYKAGFMNDGRILALDMEHYSNAGASLDESLFVIEMGLLKMDNAYKFPNLRCRGWACRTNLPSNTAFRGFGFPQAALITESCITEVAAKCGLSPEKVRIINMYKEIDQTPYKQEINAKNLIQCWRECMAMSSYSLRKVAVEKFNAENYWKKKGLAMVPLKFPVGLGSRAAGQAAALVHIYLDGSVLVTHGGIEMGQGVHTKMIQVVSRELRMPMSNVHLRGTSTETVPNANISGGSVVADLNGLAVKDACQTLLKRLEPIISKNPKGTWKDWAQTAFDESINLSAVGYFRGYESDMNWEKGEGQPFEYFVYGAACSEVEIDCLTGDHKNIRTDIVMDVGCSINPAIDIGQIEGAFIQGMGLYTIEELNYSPQGILHTRGPDQYKIPAICDMPTELHIALLPPSQNSNTLYSSKGLGESGVFLGCSVFFAIHDAVSAARQERGLHGPLTLNSPLTPEKIRMACEDKFTKMIPRDEPGSYVPWNVPI
B1: the Michaelis-Menten constant (Km) in [13] was found to be 16 µM; in [14], 1.8 µM; in series [15], 0.4 µM; in [16], 2.2 µM; in series [17], 9 µM; in [18], 1.2 µM.

These data come from ChEMBL document CHEMBL3525904, “Effect of structural variation on aldehyde oxidase-catalyzed oxidation of zoniporide” (Drug Metab Dispos, 2012).
